According to PubChem BioAssay AID179 (DTP/NCI, 2004):
Where “and” joins values, the source holds several entries; their conditions need not be identical. Identical values can stand only once. Calls of active or inactive are those of the source.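 How the source made its calls: active means compounds giving half or more protection of infected cells from virus-caused growth loss, again on retest; inactive means the rest.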

Test system: CEM cells HIV-1 protection, formazan growth assay
Assay: NCI AIDS Antiviral Assay
Details: for IC50: measured here: growth of uninfected CEM cells
How it was run: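 Human CEM cells, uninfected and HIV-1-infected, received five drug concentrations, and growth was read by soluble formazan assay. Compounds giving at least 50% protection were retested; reproducible 100% protection defined confirmed active.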

| Structure (SMILES) | EC50 | IC50 [µM] | outcome |
| --- | --- | --- | --- |
| COc1c(C=O)c2c(c(OC)c1OC)-c1ccc(OC)c(=O)cc1[C@@H](NC(C)=O)CC2 | > 0.2 µM | 0.011 | – |
| COc1ccc(CCN=C2OCc3ccccc32)cc1OC | > 200 µM | 11.7 | – |
| NNC(=S)N/N=C(\c1nc2ccc(Cl)cc2[nH]c1=O)C(O)c1cccc([N+](=O)[O-])c1 (stereo not given) | > 562 µM | 120 | – |
| C(CCCCc1nnc(N2CCOCC2)o1)CCCc1nnc(N2CCOCC2)o1 | > 200 µM | 107 | – |
| Cc1ccc(O)c(C(c2ccc([N+](=O)[O-])cc2)c2cc(C)ccc2O)c1 | – | – | inactive |
| Cc1ccc(NC(=O)CCC(=O)C2CC(=O)CCC2=O)cc1C (stereo not given) | > 794 µM | > 794 | – |
| O=c1oc2cc(O)ccc2c(O)c1C(c1ccccc1F)c1c(O)c2ccc(O)cc2oc1=O | – | – | inactive |
| CCCCCCCSCC(O)COC(c1ccccc1)(c1ccccc1)c1ccccc1 (stereo not given) | > 200 µM | 30.2 | – |
| N#Cc1nc(Nc2ccc([N+](=O)[O-])cc2)sc1N | > 38 µM | 19.1 | – |
| CN(C)CCN(C)C(=O)C1CCCN1C(=O)OCc1ccccc1 (stereo not given) | > 759 µM | 46.8 | – |
| Cc1cc(NS(=O)(=O)c2ccc(N=Nc3cc(S(=O)(=O)O)c4ccccc4c3O)cc2)ccc1N=Nc1ccc2cc(S(=O)(=O)O)cc(S(=O)(=O)O)c2c1 | – | – | active |
| N#CNC(=NCC1CCCO1)Nc1cccnc1 (stereo not given) | > 1020 µM | 933 | – |
| Cc1ccc(Nc2nc3nc[nH]c3c(=O)[nH]2)cc1CO | > 200 µM | > 200 | – |
| N/N=C(/C(=O)Nc1cccc(Cl)c1)C(C(=O)c1ccc(O)cc1O)C1OC(=O)c2ccccc21 (stereo not given) | > 525 µM | 87.1 | – |
| CC(=O)Nc1ccc(/C=C2\SC(=S)N(C=C(C#N)C#N)C2=O)cc1 | > 200 µM | 49 | – |
| O=C(N/N=C\c1ccco1)c1ccncc1 | > 200 µM | > 200 | – |
| Clc1ccc(CCc2ccncn2)c(Cl)c1 | > 398 µM | 38 | – |
| CCOC(=O)C(=O)CC1=CC=CC2=NC(=O)CCN12 | > 200 µM | > 200 | – |
| COc1ccccc1C1C(Cl)C(=O)N1n1cnc2ccccc2c1=O (stereo not given) | > 52.5 µM | > 52.5 | – |
| N=c1oc2ccc(Cl)cc2cc1C(=O)Nc1ccccc1 | > 151 µM | 21.9 | – |
| O=C(N/C(=C\c1cc(Cl)ccc1Cl)c1nc2ccc(Cl)cc2[nH]1)c1ccccc1 | – | – | inactive |
| O=C(O)CC1OC(=O)C(Br)=C1O (stereo not given) | > 1050 µM | > 1050 | – |
| CC(=O)NC1CC2Oc3ccc(C)cc3C(C)(O2)C1O (stereo not given) | – | – | inactive |

| Structure (SMILES) | EC50 | IC50 [µM] | outcome |
| --- | --- | --- | --- |
| C=CCN1C(=O)CS/C1=N\NC(=O)CSc1nc2ccccc2c(=O)n1CC | > 200 µM | > 200 | – |
| CCCC1=NNc2n[nH]c(=S)n2N1 | > 132 µM | 58.9 | – |
| CSc1sc(C)cc1-c1nsc(=O)o1 | > 200 µM | > 200 | – |
| Cn1c(=O)c2c(no[n+]2[O-])c2ccccc21 | – | – | inactive |
| C[C@@]1(Br)C[C@@](C)(Cl)[C@@H](Br)CC1/C=C/Cl (stereo not given in full) | > 200 µM | 77.6 | – |
| CCOC1=C(c2ccccc2)N2CCCCC2O1 (stereo not given) | > 200 µM | 2.57 | – |
| CCOC(=O)C(NC(=O)c1ccccc1)(N1CCN(c2cc3c(cc2F)c(=O)c(C(=O)O)cn3C2CC2)CC1)C(F)(F)F (stereo not given) | > 200 µM | 20.4 | – |
| CC1(C)COC(c2ccc(CC(O)c3ccccc3)cc2)=N1 (stereo not given) | > 200 µM | 41.7 | – |
| COC1N(C2CC(F)C(CO)O2)C(=O)NC(=O)C1(C)Cl (stereo not given) | 14.5 µM and 25.1 µM | 794 | – |
| COC(=O)C/C(C(=O)OC)=C1\CCC2=C1N1CCCC1C2(CC(=O)OC)C(=O)OC (stereo not given) | > 162 µM | > 162 | – |
| CN1CCN(C)C(=O)CSSCC1=O | > 151 µM | > 151 | – |
| CN(NC(=O)c1ccc(Cl)cc1)C1=NCCCCN1 | > 200 µM | > 200 | – |
| Oc1ccc(Cl)cc1-c1nc2ccccc2s1 | > 138 µM | 75.9 | – |
| COc1ccc(OC2OC(CO)C(OCc3ccccc3)C(OCc3ccccc3)C2OCc2ccccc2)cc1 (stereo not given) | > 200 µM | 12 | – |
| O=C(CO[N+](=O)[O-])OCC(=O)c1ccccc1 | – | – | inactive |
| Clc1cc2nnn(C3CCCO3)c2cc1Cl (stereo not given) | > 200 µM | 123 | – |
| COc1nc2c(c(O)c(C)c(=O)n2OC2OC(COC(C)=O)C(OC(C)=O)C(OC(C)=O)C2OC(C)=O)c(=O)n1C (stereo not given) | > 61.7 µM | > 61.7 | – |
| CCOC(=O)NN(C(=O)OCC)c1c(C)cc(C)cc1C | > 200 µM | > 200 | – |
| O=C(CSc1nc(-c2ccccc2)c(-c2ccccc2)[nH]1)N/N=C/c1ccc([N+](=O)[O-])cc1 | > 21.9 µM | 10 | – |
| O=C1OC(c2ccccc2)=N/C1=C\c1c(O)cc(O)cc1O | > 87.1 µM | > 87.1 | – |
| O=C1c2cccnc2S(=O)(=O)N1c1ccc(Oc2ccccc2)cc1 | > 200 µM | > 200 | – |
| C=CCN1c2ccccc2Sc2cnccc21 | > 191 µM | 33.1 | – |
| CCCCN(CCCC)C(=O)C(=O)C(C#N)c1ccc(C)cc1 (stereo not given) | – | – | inactive |

| Structure (SMILES) | EC50 | IC50 [µM] | outcome |
| --- | --- | --- | --- |
| CC1(C)NC(=S)NC1=O | > 200 µM | > 200 | – |
| CCOC(=O)CC1(N)CC2c3ccccc3OC(=O)C2C(=O)N1 (stereo not given) | > 200 µM | > 200 | – |
| O=c1[nH]c2ccc(C(F)(F)F)cc2nc1Cc1ccccc1 | > 200 µM | 74.1 | – |
| CC(NS(=O)(=O)c1ccccc1)C(=O)O (stereo not given) | – | – | inactive |
| COc1ccc2cc3c4cc(OC)c(OC)cc4ccn3c2c1 | > 23.4 µM | 22.9 | – |
| O=C(O)[C@@H]1CSC(C(O)C(O)C(O)CO)N1 (stereo not given in full) | > 355 µM | > 355 | – |
| Cc1cc(S(=O)(=O)Nc2nc3ncccc3[nH]2)c(S)cc1Cl | 33.1 µM | > 200 | – |
| CC12CCC(=O)N1c1cccnc1N2 (stereo not given) | > 1320 µM | 1120 | – |
| Cc1cc(NS(=O)(=O)c2ccc(Nc3c4ccccc4nc4c(C(=O)N5CCN(CCOS(C)(=O)=O)CC5)cccc34)cc2)no1 | > 44.7 µM | > 44.7 | – |
| Nc1ccc(CCN2CCN(c3cccc(C(F)(F)F)c3)CC2)cc1 | – | – | inactive |
| CN(C)C(=S)SSC(=S)N(C)C.[Zn+2] | > 200 µM | 0.117 | – |
| CCCCCCSCC(NC(=O)CCC(N)C(=O)O)C(=O)NCC(=O)O (stereo not given) | > 24 µM | > 24 | – |
| Cc1nc2cc([N+](=O)[O-])ccc2c(NCCCN(C)C)c1C | > 200 µM | 3.55 | – |
| CC1(C)CC(=O)c2c(nc3ccc4ccccc4c3c2-c2ccc(NC(=O)CCC(=O)Nc3ccc(-c4c5c(nc6ccc7ccccc7c46)CC(C)(C)CC5=O)cc3)cc2)C1 | > 100 µM | > 100 | – |
| CN(C)c1ccc(/C=C/C(=O)c2ccc(O)cc2)cc1 | > 200 µM | 3.31 | – |
| COc1cccc2c1OC(=O)NC2O (stereo not given) | – | – | inactive |
| O=C(CCCC[n+]1ccccc1)Sc1ccccc1C(=O)Nc1ccc(S(=O)(=O)c2ccc(NS(=O)(=O)Cc3ccccc3[N+](=O)[O-])cc2)cc1 | 9.55 µM | > 200 | – |
| C=C1CC(C)(COc2ccc3c(C)c(Cl)c(=O)oc3c2)OC1=O (stereo not given) | > 2 µM | 0.617 | – |
| CC(=O)Nc1ccc(/C=C/C(=O)c2sc(-c3nc(C)c(C(=O)/C=C/c4ccc(NC(C)=O)cc4)s3)nc2C)cc1 | > 33.1 µM | > 33.1 | – |
| CCOC(=O)N1CCc2cc(OC)c(OC)cc2/C1=C\c1ccc(OC)c(OC)c1 | – | – | inactive |
| CN(C)c1ccc(N=C2C=CC(=O)c3ccccc32)cc1 | > 20 µM | 1.23 | – |
| COc1cc(O)c2c(=O)c(O)c(-c3ccc(O)c(O)c3)oc2c1 | > 93.3 µM | 47.9 | – |
| CCOC(=O)NC(NC(C)CC)(C(F)(F)F)C(F)(F)F (stereo not given) | > 200 µM | > 200 | – |

| Structure (SMILES) | EC50 | IC50 [µM] | outcome |
| --- | --- | --- | --- |
| CC[C@H](C)[C@H](NC(=O)N(CCC#N)CCN(CCN(C(=O)N[C@@H](Cc1ccccc1)C(=O)OC)c1ccccc1)C(=O)N[C@H](C(=O)OC)C(C)C)C(=O)OC | – | – | inactive |
| O=[N+]([O-])c1ccc([I+]c2ccccc2)cc1 | > 200 µM | 2.57 | – |
| O=C(Nc1cccc([N+](=O)[O-])c1)C(=O)C(C(=O)c1ccccc1-c1ccccc1)C1OC(=O)c2ccccc21 (stereo not given) | > 69.2 µM | 33.1 | – |
| COC(=O)C1Cc2c([nH]c3ccccc23)C(c2ccccc2O)N1Cc1ccccc1 (stereo not given) | – | – | inactive |
| CC(C)=CCC[C@@H](C)c1c(O)c(O)c(C)c2nccnc12 | > 200 µM | 38 | – |
| CCc1ccccc1NC(=O)C(=O)CC(=O)c1sc(Nc2ccccc2)nc1C | > 89.1 µM | 53.7 | – |
| CCOC(=O)C(C(CC(=O)OC)NC(=O)OCc1ccccc1)C1(C)OCCO1 (stereo not given) | > 251 µM | > 251 | – |
| c1ccc(CSP234N5CCN2CCN3CCN4CC5)c(CSP234N5CCN2CCN3CCN4CC5)c1 | > 100 µM | 39.8 | – |
| O=C(O)c1cccc(C(=O)O)c1-c1c(C(=O)O)cccc1C(=O)O | > 200 µM | > 200 | – |
| COC(=O)C(CCc1ccccc1I)C1=CCC2(CC1)OCCO2 (stereo not given) | > 200 µM | 38 | – |
| Cc1ccc(-c2c(C#N)c(-c3ccccc3)n(NS(=O)(=O)c3ccccc3)c(=O)c2C#N)cc1 | > 200 µM | 28.8 | – |
| Cc1nnc2sc3ccccc3n12 | – | – | inactive |
| Cc1ccc(NC(=O)C2C(=O)C(=O)N(c3ccc(C)cc3)C2=O)cc1 (stereo not given) | > 15.5 µM | > 15.5 | – |
| CC1=Nc2nc(=NCCCN(C)C)nc3cccc(n23)N1 | > 200 µM | > 200 | – |
| O=C(O)c1ccc(CSc2ccc([N+](=O)[O-])cc2)cc1 | > 89.1 µM | 72.4 | – |
| C[C@H]1C(=O)O[C@@H]1[C@H]1COC(C)(C)O1 | > 200 µM | > 200 | – |
| CCOC(=O)c1cc(C2(O)CCN(Cc3ccccc3)C2=O)c(-c2cc(C)no2)[nH]1 (stereo not given) | > 200 µM | 38.9 | – |
| CC1=Nc2ccccc2N=C(C)C1 | > 200 µM | > 200 | – |
| O=C1c2cccc3cccc(c23)C(=O)N1Cc1ccccc1 | > 200 µM | 61.7 | – |
| CC(=O)n1nc(-c2[nH]c(C)c(-c3nn(C(C)=O)c(=S)o3)c2C)oc1=S | > 50.1 µM | > 50.1 | – |
| CC(CC[C@@]1(C)C(=O)CCC2O[C@]21C)[C@H]1C[C@@H](c2ccoc2)OC1=O (stereo not given in full) | > 200 µM | 34.7 | – |
